# Source: patent publication EP1462117A1, “Method for in vivo detection of antipsychotic properties of dopamine D3 receptor ligands” (priority 2003, dated 2004)
# Where “and” joins values, the source holds several entries; their conditions need not be identical. Equal entries are not always repeated.
# Assays:
# Swiss mice [1] = experiment: MK-801 (dizocilpine)-induced and spontaneous locomotor activity, acute treatment, actimeter; type: in vivo; conditions: for MK-801-induced hyperactivity: post-hoc vs saline
# Procedure: (§1) Male Swiss mice (Iffa Credo, France), weighing 25-30 g, were housed four per cage (25 × 15 × 13 cm), on a 12 hr/12 hr light/dark cycle (lights on at 07:00 a.m.), with food and water ad libitum. […] Experiments with D3R-deficient mice were performed on male homozygous mutant mice and their wild-type littermates. […] The mice used in the present study were backcrossed 7 to 8 times.
# Haloperidol (Janssen Pharmaceuticals, Beerse, Belgium) and clozapine (Novartis, Basel, Switzerland) were dissolved in a few drops of hydrochloric acid and distilled water, and the pH of the solution was adjusted to pH 5 to 6 using NaOH. […] The compounds were injected i.p. in a volume of 5 ml/kg.
# (§2) All experiments were conducted between 2.00 p.m. and 6.00 p.m., and the animals were kept in the test room at least 1 h before recording their activity. […] Counts for forward horizontal activity were incremented each time the animal moved from one-half part of the cage to the other, corresponding to disruption of two crossed parallel beams distant of 14 cm. In time-course studies, counts were summed every 5 min.
# (§3) Between-group differences were analyzed with the Statistica™ software using two-way analysis of variance (ANOVA) and Least Significance Difference (LSD) post-hoc test. The analysis of data obtained with the same animals evaluated on several occasions (time-course experiments), between-within univariate or multivariate ANOVA for repeated measures were used (time being the repeated measure).
# To assess simply the in vivo biological activity of the novel compound at the D3 receptor, the above described test, in which hyperlocomotion induced by low doses of dizocilpine is measured, was used.
# wild-type (D3R^+/+) mice = experiment: MK-801-induced locomotor activity in wild-type mice; type: in vivo
# Procedure: Male Swiss mice (Iffa Credo, France), weighing 25-30 g, were housed four per cage (25 × 15 × 13 cm), on a 12 hr/12 hr light/dark cycle (lights on at 07:00 a.m.), with food and water ad libitum. […] Experiments with D3R-deficient mice were performed on male homozygous mutant mice and their wild-type littermates. […] Subsequently, these mice were backcrossed up to 8 times with C57BL6 mice. The mice used in the present study were backcrossed 7 to 8 times.
# as §2
# (§4) In addition, another experiment was performed with two groups of 8 mice of each genotype, injected with either saline or haloperidol (0.05 mg/kg).
# as §3
# [2] = tested on: D3 receptor-deficient mice (D3R^-/-); experiment: MK-801-induced locomotor activity in D3 receptor-deficient mice; type: in vivo; conditions: compound 1 mg/kg; MK-801 […]; D3R^-/- mice
# Procedure: as §1, §2, §4, §3
# Swiss mice [3] = experiment: Locomotor hyperactivity induced by continuous infusion of MK-801 (osmotic minipumps); type: in vivo
# Procedure: Male Swiss mice (IFFA CREDO, France), weighing 26-28 g, were housed six per cage (25 × 15 ×13 cm), on a 12 h/12 h light/dark cycle (lights on at 07:00 a.m.), with food and water freely available. Room temperature ranged from 20° to 22°C and humidity varied between 55% and 65%.
# Dizocilpine, as (+)-MK-801 maleate (Sigma), dissolved in 0.9% NaCl (saline), and its respective vehicle solution, was continuously infused via osmotic minipumps (Model 1007D, Alzet Corp.). Minipumps were filled 6 h prior to implantation and placed in a sterile saline water bath at 37°C. Taking into consideration the average weight of the mice at the time of testing, and the rate of the minipump delivery (specified by the manufacturer), the MK-801 concentration was adjusted to deliver 0.01 or 0.02 mg/kg/hr (0.48 mg/kg/day). Mice were anaesthetized with chloral hydrate (400 mg/kg i.p.), and an area on the back of the mice was shaved and cleaned with 70% ethanol. A small incision was made, a pocket beneath the skin was formed and the minipump was placed inside the pocket in each mouse. The incision was sutured, and cleaned with 70% ethanol. The mice were returned in their home cage and in about 2 h they had recovered and were active.
# Once the minipumps implanted (Day 0), the locomotor activity was measured for 1h, at days 2, 4 and 7 in an actimeter (Imetronic, Pessac, France).
# as §3, with “measure). Data from the resident-intruder assay were analyzed by analysis of variance (ANOVA), followed by a Tukey-Kramer Multiple Comparison post-hoc test.” for “measure).”
# MK-801-treated mice = experiment: Resident-intruder assay in MK-801-treated mice; type: in vivo; conditions: MK-801 0.02 mg/kg/h for 7 days; compound 1 mg/kg i.p. 30 min prior testing; 5 min
# Procedure: Male mice were housed individually or in groups of five for at least 1 week prior to minipump implantation (Day 0), delivering MK-801 (0.02 mg/kg/h) or saline (Sham), and were tested at day 7. As described in Dixon et al. (1994), a group-housed male (intruder) was placed in the home cage of the individually housed male (resident), and their behaviors were video recorded for 5 min. […] The videotaped behaviors of the resident or intruder male were individually scored, by an experimenter unaware of the treatment group, for time spent in social investigation (approaching, sniffing, grooming other mouse, and sexual behavior), and in escape behavior (actively avoiding the unfamiliar congener). The scores for each behavior were subsequently averaged for each group.
# as §3, with “measure). Data from the resident-intruder assay were analyzed by analysis of variance (ANOVA), followed by a Tukey-Kramer Multiple Comparison post-hoc test.” for “measure).”
# PD-like rats = experiment: Rotations in PD-like rats (6-hydroxydopamine lesion, levodopa-treated); type: in vivo; conditions: saline 108 ± 7
# [4] = Plasma concentrations in monkeys (radioreceptor assay); type: in vivo
# [5] = Plasma concentrations in mice; type: in vivo; conditions: after injection at a dose giving selective effects at the D3 receptor; n = 6
# MPTP-intoxicated monkeys = experiment: Levodopa-induced dyskinesia, PD-like symptoms and locomotor activity in MPTP-intoxicated monkeys
smiles,measurement,setting,value
"COc1ccccc1N1CCN(CCCCNC(=O)c2ccc3ccccc3c2)CC1 [BP 897, 1-(4-(2-Naphthoylamino)butyl)-4-(2-methoxyphenyl)-1A-piperazine]",activity with MK-801,"Swiss mice [1]; MK-801 […], 60 min, compound i.p. 0.1, 0.3, 1 mg/kg (haloperidol 0.03, 0.1, 0.3 mg/kg), overall dose-response",dose-dependently reduced
same,level to which locomotor activity in MK-801-treated mice was reduced,"Swiss mice [1]; MK-801 […], level corresponds to saline-treated mice",30-40%
same,MK-801-induced hyperactivity,"Swiss mice [1]; compound 0.3 mg/kg i.p., MK-801 […]",significantly reduced
same,MK-801-induced hyperactivity,"Swiss mice [1]; compound 1 mg/kg i.p., MK-801 […]",significantly reduced
same,decrease of the activity in the presence of MK-801,"Swiss mice [1]; compound 1 mg/kg, MK-801 0.3 mg/kg, statistically non significant",10-15%
same,spontaneous activity,"Swiss mice [1]; habituation phase, 30 min starting 5 min after injection, all doses tested",without any effect
same,minimal active dose to reduce the hyperactivity induced by 0.3 mg/kg of MK-801,wild-type (D3R^+/+) mice; D3R^+/+ and D3R^-/- mice,3 mg/kg
same,MK-801-induced activity,"wild-type (D3R^+/+) mice; compound 1 mg/kg, MK-801 […], D3R^+/+ mice",inhibited
same,spontaneous activity during the habituation phase,"wild-type (D3R^+/+) mice; compound 1 mg/kg, experiment with D3R^+/+ and D3R^-/- mice",Neither of the drugs affected
same,locomotor response to MK-801,[2],no longer able to inhibit
same,MK-801-induced hyperactivity,"Swiss mice [3]; acute administration on the 10th day after minipump implantation, clozapine 1 mg/kg, haloperidol 0.3 mg/kg, BP 897 1 mg/kg",effect similar to that produced by clozapine or haloperidol
same,spontaneous hyperactivity,"Swiss mice [3]; subchronic treatment twice a day for 4.5 days from day 6, BP 897 1 mg/kg, haloperidol 0.3 mg/kg, recorded at least 6 hours after last administration",reversed
same,methamphetamine-induced hyperactivity,"Swiss mice [3]; subchronic treatment twice a day for 4.5 days from day 6, methamphetamine 1 mg/kg, recorded at least 6 hours after last administration",reversed
same,Social investigations,MK-801-treated mice,restored
same,escape behavior,MK-801-treated mice,completely normalized
same,numbers of rotations,"PD-like rats; BP 897 0.1 mg/kg with levodopa 50 mg/kg, n = 8",89 ± 10
same,numbers of rotations,"PD-like rats; BP 897 0.3 mg/kg with levodopa 50 mg/kg, n = 17",91 ± 12
same,numbers of rotations,"PD-like rats; BP 897 1.0 mg/kg with levodopa 50 mg/kg, n = 13",68 ± 8
same,numbers of rotations,"PD-like rats; BP 897 3.0 mg/kg with levodopa 50 mg/kg, n = 13",66 ± 12
same,maximal plasma concentration,[4]; BP 897 5.0 or 10 mg/kg orally,280 ± 110 nM
same,time of maximal plasma concentration,"[4]; monkey, in vivo",60 min
same,half-life,"[4]; monkey, plasma",~1 h
same,plasma concentration,[5],130 ± 14 nM
same,attenuation of LID,"MPTP-intoxicated monkeys; calculated from areas under curve, BP 897 5.0 or 10 mg/kg orally with levodopa",66%
same,on-time duration,"MPTP-intoxicated monkeys; from activity counts, threshold at 30% of the maximal activity, over 5 hr",no difference with placebo
same,antidyskinetic effect along repeated administrations,"MPTP-intoxicated monkeys; one monkey, BP 897 12 times",did not show any obvious signs of decline
same,dose reaching a maximal effect on LID,"MPTP-intoxicated monkeys; tailored for each monkey, oral, with a fixed dose of levodopa, 5.0 (n = 1), 10 (n = 4)",5.0 mg/kg and 10 mg/kg
same,locomotor activity (activity counts),MPTP-intoxicated monkeys; with levodopa,undermine the levodopa-induced activity around the dyskinesia threshold
same,antiparkinson activity of the compound alone,"MPTP-intoxicated monkeys; without levodopa, two dyskinetic monkeys",no antiparkinson activity
